Reference: patent US10800772B2 (Gilead Sciences, Inc., priority 2016, dated 2020)
Where two headings read alike, the source gives them in different places.

Experiments:
[1] = system: HIV-IIIb (wildtype); assay: Antiviral assay in MT4 cells, HIV-IIIb wildtype; assay type: cell-based, HIV-1; conditions: read-out: WT EC50
How it was run: (§1)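 Luminescence from CellTiter-Glo after a 5-day culture served as the measure of HIV-1 replication in MT4 cells. Cells were infected beforehand for 3 h with HIV-IIIb (0.004 m.o.i.) and exposed to ten 3-fold compound dilutions. EC50 corresponds to a 50% signal decrease.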

[2] = system: HIV-IIIb IN T174I BT; assay: Antiviral assay in MT4 cells, HIV-IIIb IN T174I BT virus (from viral breakthrough); assay type: cell-based, HIV-1
How it was run: as §1

[3] = system: HIV-IIIb IN T174I DE; assay: Antiviral assay in MT4 cells, HIV-IIIb IN T174I DE virus (from dose escalation passaging); assay type: cell-based, HIV-1
How it was run: as §1

[4] = Hum MS stability (human microsomal stability half-life); conditions: human microsomes
[5] = Human immunodeficiency virus 1, IIIB, MT4, 120 h
[6] = Human immunodeficiency virus 1, IIIB, MT4, 120 h, read-out: T174I BT EC50, MT4 cells, HIV-IIIb IN T174I BT (viral breakthrough), 5 days, CellTiter-Glo
[7] = Human immunodeficiency virus 1, IIIB, MT4, 120 h, read-out: T174I DE EC50, MT4 cells, HIV-IIIb IN T174I DE (dose escalation), 5 days, CellTiter-Glo

SMILES | EC50 [1, 5] | EC50 [2, 6] | EC50 [3, 7] | half-life [4] | EC50 ([1]; Human immunodeficiency virus 1, 120 h, MT4 cells, HIV-IIIb wildtype, 5 days, CellTiter-Glo) | EC50 ([1]; MT4 cells, HIV-IIIb wildtype, 5 days, CellTiter-Glo) | EC50 ([2]; read-out: T174I BT EC50, MT4 cells, HIV-IIIb IN T174I BT (viral breakthrough), 5 days, CellTiter-Glo) | EC50 ([3]; read-out: T174I DE EC50, MT4 cells, HIV-IIIb IN T174I DE (dose escalation), 5 days, CellTiter-Glo)
Cc1cc2nc(-c3ccc4c(c3)c(N3CCN(C)CC3)nn4C)sc2c(-c2ccc(Cl)cc2)c1[C@H](OC1CC1)C(=O)O [Compound 103, (S)-2-(7-(4-chlorophenyl)-5-methyl-2-(1-methyl-3-(4-methylpiperazin-1-yl)-1H-indazol-5-yl)benzo[d]thiazol-6-yl)-2-cyclopropoxyacetic acid] | 32 nM | 267 nM | 367 nM | 2.47 h | – | – | – | –
COCCN1CCN(c2nn(C)c3ccc(-c4nc5cc(C)c([C@H](OC(C)(C)C)C(=O)O)c(-c6ccc(Cl)cc6)c5s4)cc23)CC1 [Compound 98, (S)-2-(tert-butoxy)-2-(7-(4-chlorophenyl)-2-(3-(4-(2-methoxyethyl)piperazin-1-yl)-1-methyl-1H-indazol-5-yl)-5-methylbenzo[d]thiazol-6-yl)acetic acid] | 4 nM | 290 nM | 516 nM | 3.17 h | – | – | – | –
Cc1cc2nc(-c3ccc4c(c3)c(C3CCN(C5CS(=O)(=O)C5)CC3)nn4C)sc2c(-c2ccc(Cl)cc2)c1[C@H](OC(C)(C)C)C(=O)O [Compound 10, (S)-2-(tert-butoxy)-2-(7-(4-chlorophenyl)-2-(3-(1-(1,1-dioxidothietan-3-yl)piperidin-4-yl)-1-methyl-1H-indazol-5-yl)-5-methylbenzo[d]thiazol-6-yl)acetic Acid] | 10 nM | 275 nM | 303 nM | 3.58 h | – | – | – | –
CC(=O)N1CC(N2CCC(c3nn(C)c4ccc(-c5nc6cc(C)c([C@H](OC(C)(C)C)C(=O)O)c(-c7ccc(Cl)cc7)c6s5)nc34)CC2)C1 [Compound 185, (S)-2-(2-(3-(1-(1-acetylazetidin-3-yl)piperidin-4-yl)-1-methyl-1H-pyrazolo[4,3-b]pyridin-5-yl)-7-(4-chlorophenyl)-5-methylbenzo [d]thiazol-6-yl)-2-(tert-butoxy) acetic acid] | 1 nM | 35 nM | 66 nM | 0.6 h | – | – | – | –
COCCN(C)C1CN(c2nn(C)c3ccc(-c4nc5cc(C)c([C@H](OC(C)(C)C)C(=O)O)c(-c6ccc(Cl)cc6)c5s4)cc23)C1 [Compound 145, (S)-2-(tert-butoxy)-2-(7-(4-chloro-phenyl)-2-(3-(3-((2-methoxyethyl) (methyl)amino)azetidin-1-yl)-1-methyl-1H-indazol-5-yl)-5-methylbenzo[d]thiazol-6-yl) acetic acid] | 12 nM | 1590 nM | 2170 nM | 2.15 h | – | – | – | –
Cc1cc2nc(-c3ccc4c(c3)c(C3CN(C)C3)nn4C)sc2c(-c2ccc(Cl)cc2)c1[C@H](OC(C)(C)C)C(=O)O [Compound 57, (S)-2-(tert-butoxy)-2-(7-(4-chlorophenyl)-5-methyl-2-(1-methyl-3-(1-methylazetidin-3-yl)-1H-indazol-5-yl)benzo[d]thiazol-6-yl)acetic acid] | 13 nM | 4260 nM | 4140 nM | – | – | – | – | –
Cc1cc2nc(-c3ccc4c(c3)c(C3CCN(C5CN(C(=O)OC(C)(C)C)C5)CC3)nn4C)sc2c(-c2ccc(Cl)cc2)c1[C@H](OC(C)(C)C)C(=O)O [Compound 28, (S)-2-(tert-butoxy)-2-(2-(3-(1-(1-(tert-butoxycarbonyl)azetidin-3-yl)piperidin-4-yl)-1-methyl-1H-indazol-5-yl)-7-(4-chlorophenyl)-5-methylbenzo[d]thiazol-6-yl)acetic Acid] | 73 nM | 1800 nM | 2260 nM | – | – | – | – | –
COC(=O)N1CC[C@H]1CN1CCC(c2nn(C)c3ccc(-c4nc5cc(C)c([C@H](OC(C)(C)C)C(=O)O)c(-c6ccc(Cl)cc6)c5s4)cc23)CC1 [Compound 150, (S)-2-(tert-butoxy)-2-(7-(4-chloro-phenyl)-2-(3-(1-(((S)-1-(methoxy-carbonyl)azetidin-2-yl)methyl)piperidin-4-yl)-1-methyl-1H-indazol-5-yl)-5-methyl-benzo[d]thiazol-6-yl)acetic acid] | 4 nM | 214 nM | 182 nM | – | – | – | – | –
Cc1cc2nc(-c3ccc4c(c3)c(C3CCN(C5CN(C)C5)CC3)nn4C)sc2c(-c2ccc(Cl)cc2)c1[C@H](OC(C)(C)C)C(=O)O [Compound 31, (S)-2-(tert-butoxy)-2-(7-(4-chlorophenyl)-5-methyl-2-(1-methyl-3-(1-(1-methylazetidin-3-yl)piperidin-4-yl)-1H-indazol-5-yl)benzo[d]thiazol-6-yl)acetic acid] | 12 nM | 138 nM | 236 nM | – | – | – | – | –
CC(=O)N1CC(N2CCC(c3nn(CCN(C)C)c4ccc(-c5nc6cc(C)c([C@H](OC(C)(C)C)C(=O)O)c(-c7ccc(Cl)cc7)c6s5)cc34)CC2)C1 [Compound 33, (S)-2-(2-(3-(1-(1-acetylazetidin-3-yl)piperidin-4-yl)-1-(2-(dimethylamino)ethyl)-1H-indazol-5-yl)-7-(4-chlorophenyl)-5-methylbenzo[d]thiazol-6-yl)-2-(tert-butoxy)acetic acid] | 5 nM | 587 nM | 1020 nM | – | – | – | – | –
Cc1cc2nc(-c3ccc4c(c3)c(C3=CCOCC3)nn4C)sc2c(-c2ccc(Cl)cc2)c1[C@H](OC(C)(C)C)C(=O)O [Compound 18, (S)-2-(tert-butoxy)-2-(7-(4-chlorophenyl)-2-(3-(3,6-dihydro-2H-pyran-4-yl)-1-methyl-1H-indazol-5-yl)-5-methylbenzo[d]thiazol-6-yl)acetic Acid] | 14 nM | 2150 nM | 4500 nM | – | – | – | – | –
Cc1cc2nc(-c3ccc4[nH]nc(C5CCN(C6COC6)CC5)c4c3)sc2c(-c2ccc(Cl)cc2)c1[C@H](OC(C)(C)C)C(=O)O [Compound 34, (S)-2-(tert-butoxy)-2-(7-(4-chlorophenyl)-5-methyl-2-(3-(1-(oxetan-3-yl)piperidin-4-yl)-1H-indazol-5-yl)benzo[d]thiazol-6-yl)acetic acid] | – | 968 nM | 1170 nM | – | 31 nM | – | – | –
COCC(=O)N1CCC(c2nn(C)c3ccc(-c4nc5cc(C)c([C@H](OC(C)(C)C)C(=O)O)c(-c6ccc(Cl)cc6)c5s4)cc23)C1 (stereo partly drawn) [Compound 76, (S)-2-(tert-butoxy)-2-(7-(4-chlorophenyl)-2-(3-((S)-1-(2-methoxyacetyl)pyrrolidin-3-yl)-1-methyl-1H-indazol-5-yl)-5-methylbenzo[d]thiazol-6-yl)acetic acid] | – | – | – | – | – | 16 nM | 510 nM | 906 nM
COC(=O)N1CC[C@H](N2CCC(c3nn(C)c4ccc(-c5nc6cc(C)c([C@H](OC(C)(C)C)C(=O)O)c(-c7ccc(Cl)cc7)c6s5)cc34)CC2)C1 [Compound 162, (S)-2-(tert-butoxy)-2-(7-(4-chloro-phenyl)-2-(3-(1-((S)-1-(methoxy-carbonyl)pyrrolidin-3-yl)piperidin-4-yl)-1-methyl-1H-indazol-5-yl)-5-methylbenzo[d]thiazol-6-yl) acetic acid] | 5 nM | 149 nM | 272 nM | – | – | – | – | –
Cc1cc2nc(-c3ccc4c(c3)c(N3CC5(COC5)C3)nn4C)sc2c(-c2ccc(Cl)cc2)c1[C@H](OC(C)(C)C)C(=O)O [Compound 91, (S)-2-(tert-butoxy)-2-(7-(4-chlorophenyl)-5-methyl-2-(1-methyl-3-(2-oxa-6-azaspiro[3.3]heptan-6-yl)-1H-indazol-5-yl)benzo[d]thiazol-6-yl)acetic acid] | 11 nM | 1720 nM | 2440 nM | – | – | – | – | –
[2H]C([2H])([2H])n1nc(C2CCN(C3CN(C(=O)OC)C3)CC2)c2nc(-c3nc4cc(C)c([C@H](OC(C)(C)C)C(=O)O)c(-c5ccc(Cl)cc5)c4s3)ccc21 [Compound 191, (S)-2-(tert-butoxy)-2-(7-(4-chloro-phenyl)-2-(3-(1-(1-(methoxycarbonyl)azetidin-3-yl)piperidin-4-yl)-1-(methyl-d3)-1H-pyrazolo[4,3-b]pyridin-5-yl)-5-methylbenzo[d]thiazol-6-yl) acetic acid] | 2 nM | 55 nM | 108 nM | – | – | – | – | –
Cc1cc2nc(-c3ccc4c(c3)c(C3CN(C(=O)OC(C)(C)C)C3)nn4C)sc2c(-c2ccc(Cl)cc2)c1[C@H](OC(C)(C)C)C(=O)O [Compound 53, (S)-2-(tert-butoxy)-2-(2-(3-(1-(tert-butoxycarbonyl)azetidin-3-yl)-1-methyl-1H-indazol-5-yl)-7-(4-chlorophenyl)-5-methylbenzo[d]thiazol-6-yl)acetic acid] | 45 nM | 8910 nM | 57000 nM | – | – | – | – | –
CCn1nc(C2CCN([C@@H]3CCN(C(=O)OC)C3)CC2)c2cc(-c3nc4cc(C)c([C@H](OC(C)(C)C)C(=O)O)c(-c5ccc(Cl)cc5)c4s3)ccc21 [Compound 50, (S)-2-(tert-butoxy)-2-(7-(4-chlorophenyl)-2-(1-ethyl-3-(1-((R)-1-(methoxycarbonyl)pyrrolidin-3-yl)piperidin-4-yl)-1H-indazol-5-yl)-5-methylbenzo[d]thiazol-6-yl)acetic Acid] | 4 nM | 74 nM | 276 nM | – | – | – | – | –
